In US20190183798A1, “METHOD FOR TREATING TUMOR” (Johnpro Biotech Inc., priority 2016, published 2019):

What was measured:
HepG2 cells [1] = assay: Absorption of dextran, CT-B or transferrin in HepG2 cells under specified treatments (flow cytometry), with or without wortmannin; assay type: cell-based
Description: In the treatment of wortmannin, an inhibitor of macropinocytosis pathway, the HepG2 cells were treated with phosphate-buffered saline (PBS) or wortmannin at 37° C. for 15 minutes. After the administration of dextran, the cells were applied with 37° C. treatment, 42° C. treatment or mEHT treatment for 1 hour.
The cells were analyzed by flow cytometry.

HepG2 cells [2] = assay: Absorption/retention of lipo-dox in HepG2 cells under specified treatments (flow cytometry, confocal microscopy); conditions: 37° C., 42° C. and mEHT treatments compared

transferrin was tested. Which “Absorption of transferrin by the cell compared with control group” value (HepG2 cells [1]; all treatment groups (37° C., 42° C. and mEHT), 5 μg/ml transferrin) did it give?
Its value is “enhanced absorption”.

Which “Absorption of dextran to the cells compared with control group” value (HepG2 cells [1]; all treatment groups (37° C., 42° C. and mEHT), 1 mg/ml dextran) does the source give for dextran here?
Its value is “enhanced absorption”.

And the “Fluorescence signal of dextran in cells treated with mEHT” value (HepG2 cells [1]; mEHT treatment versus 37° C. and 42° C. treatments)?
The value was “highest fluorescence signals”.

How did the “Absorption of CT-B by the cell compared with control group” value (HepG2 cells [1]; all treatment groups (37° C., 42° C. and mEHT), 2 μg/ml CT-B) turn out when “CT-B: particle about 100 nm used as tested drug for endocytosis uptake” was run?
Its value is “enhanced absorption”.

COc1cccc2c1C(=O)c1c(O)c3c(c(O)c1C2=O)C[C@@](O)(C(=O)CO)C[C@@H]3O[C@H]1C[C@H](N)[C@H](O)[C@H](C)O1 [dox, doxorubicin] was tested. Which “Enhancement of the absorption of dox without liposome encapsulation” value (HepG2 cells [2]) did it give?
The value was “no obvious difference among the tested treatments”.
